Reference: patent publication US20250304587A1, “WEE1 INHIBITOR, PREPARATION THEREFOR AND USE THEREOF” (JIANGSU TASLY DIYI PHARMACEUTICAL CO., LTD., priority 2022, published 2025)

Key:
[1] = tested on: BxPC3 cells; experiment: Cell Titer-Glo anti-proliferation, BxPC3 cells; format: cell-based, human; details: 3 days, read-out: Anti-proliferative activity BxPC3 (IC50 class)
Procedure, shortened: (§1)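 Each line was exposed to graded compound concentrations for 3 days at 37 °C, 5% CO2, with final DMSO at 0.2%. Viability was measured by Cell Titer-Glo luminescence, with untreated cells as the maximum and medium as the minimum signal. IC50 came from a variable-slope log(inhibitor)-response fit.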

[2] = tested on: HT-29 cells; experiment: Cell Titer-Glo anti-proliferation, HT-29 cells; format: cell-based, human; details: 3 days, read-out: Anti-proliferative activity HT-29 (IC50 class)
Procedure, shortened: as §1

[3] = tested on: OVCAR-3 cells; experiment: Cell Titer-Glo anti-proliferation, OVCAR-3 cells; format: cell-based; details: 3 days, read-out: Anti-proliferative activity OVCAR-3 (IC50 class)
Procedure, shortened: as §1

[4] = tested on: plasma protein; experiment: Plasma protein binding (equilibrium dialysis), mouse; details: mouse plasma, 1 μM, 5 h dialysis
Method: Sample preparation: The compound was dissolved in DMSO to a stock solution of 10 mM, then the compound was diluted with PBS to a secondary stock solution of 0.02 mM, and then the above 0.02 mM was diluted to 1 μM using blank plasma, which was the sample to be incubated.
Dialysis set-up preparation: 400 μL of blank PBS was first added to the white wells of the equilibrated dialysis plate and 200 μL of the configured plasma sample was added to the red wells, and the dialysis plate was sealed with a sealing film.
Recovery plate preparation: Two 96-well deep-well plates, labelled T0 and T5, were prepared and all plasma samples were added at n=2. 300 μL of acetonitrile (Verapamil-HCl, 4 ng/mL) was added directly to the TO plate, followed by 50 μL of blank PBS mix well for 5 min and left to stand in a 4° C. refrigerator until the end of the incubation.
Experimental Operation: The dialysis device and the T5 plate were incubated together for 5 h in a microplate thermostatic shaker (37° C., using 300 rpm or minimum speed). At the end of the incubation, 300 μL of acetonitrile (Verapamil-HCl, 4 ng/mL) was added and 50 μL of PBS solution was added. At the end of the dialysis incubation, a new 96-well deep well plate was taken. Add 50 μL of plasma well sample to the corresponding position of the 96-well plate, 300 μL of acetonitrile and 50 μL of blank PBS; take 50 μL of buffer well sample to the corresponding position of the 96-well plate, then add 300 μL of acetonitrile and 50 μL of blank plasma. Add 300 μL of acetonitrile (Verapamil-HCl, 4 ng/mL) to the plasma-containing wells of the T5 plate, and then 50 μL of PBS solution was added. Shake for 5 min to fully precipitate the proteins and centrifuge at 20,000 g for 10 min at 4° C. Add 200 μL of supernatant to 200 μL of pure water, mix well and perform LC-MS/MS analysis.
• Plasma protein binding rate=[(Rpe−Rb)/Rpe]×100% • Recovery=[(Rpe+Rb)/R5 h]×100% • Stability=(R5/R0)×100%
• Rpe=ratio of plasma-side testing sample peak area to internal standard • Rb=ratio of buffer side testing sample peak area to internal standard • R5=ratio of incubator stability sample peak area to internal standard • R0=ratio of refrigerator stability sample peak area to internal standard

[5] = tested on: HK2 cells; experiment: Cell Titer-Glo anti-proliferation, normal cells HK2; format: cell-based
Method: (§2) Compound solutions of different concentration gradients were prepared. […] The cell growth group without compound was used as a positive control (maximum signal control) and the medium was used as a negative control (minimum signal control), while ensuring that the final level of DMSO in each reaction well was 0.2%. After removing the medium from the 384-well plate, 25 μl of the configured compound at different concentrations was transferred into the well plate and the compound and cells were incubated in the cell incubator at 37° C. with 5% CO2 for 3 days.
(§3) The 384-well plates were removed from the cell incubator and allowed to equilibrate for 1 h to room temperature. 25 μl of Cell Titer-Glo assay was added to each well, lysed on a shaker for 2 min and then read out (Luminescence) using a BMG PHERAStar after 10 min incubation. Calculate the inhibition rate from the luminescence signal.
(§4) to calculate the rate of inhibition of the cells by different concentrations of the compounds. The IC50 of the compound on cell activity inhibition was calculated by fitting a log(inhibitor) vs. response-Variable slope model to GraphPad Prism 6. The fitted equation was: Y=Bottom+(Top-Bottom)/(1+10^((Log IC50−X)*HillSlope)), where Y represents the rate of inhibition and X represents the concentration of the known compound after Log.
(§5) B. Evaluation of the Anti-Proliferative Effect of Compounds by the Cell Titer-Glo Method on Normal Cells HUVEC and HK2.
(§6) The test method is the same as the anti-proliferative activity evaluation of tumor cells.

[6] = tested on: HUVEC cells; experiment: Cell Titer-Glo anti-proliferation, normal cells HUVEC; format: cell-based
Method: as §2, §3, §4, §5, §6

[7] = tested on: Caco-2 cells; experiment: Membrane permeability in Caco-2 model; format: in vitro ADME; details: for Efflux Ration: Caco2; for Papp A to B / Papp B to A: Caco2, 10 μM, 90 min
Method: Caco-2 cells were purchased from the American Model Tissue Cell Collection (Rockville, MD). The cell culture medium was modified Eagle's medium (MEM) containing 10% inactivated fetal bovine serum and 1% non-essential amino acids. […] The cells were incubated for 21-28 days after inoculation for transport experiments and the apparent permeability (Papp) of Lucifer Yellow was used to characterize and verify the compactness of the cell monolayer. […] After the incubation, dilute the samples on the apical side and basolateral side, and the concentrations of compounds on the apical and basolateral sides were detected by LC-MS/MS, and the concentrations of the compounds were quantified by standard curve.

[8] = molecular target: Wee1 protein (Homo sapiens (Human), UniProt P30291); experiment: TR-FRET binding of compound to Wee1 protein and Tracer 178; details: Tracer 178, read-out: IC50, inhibitory activity against Wee1 kinase
Chain of Wee1 protein (P30291 whole entry): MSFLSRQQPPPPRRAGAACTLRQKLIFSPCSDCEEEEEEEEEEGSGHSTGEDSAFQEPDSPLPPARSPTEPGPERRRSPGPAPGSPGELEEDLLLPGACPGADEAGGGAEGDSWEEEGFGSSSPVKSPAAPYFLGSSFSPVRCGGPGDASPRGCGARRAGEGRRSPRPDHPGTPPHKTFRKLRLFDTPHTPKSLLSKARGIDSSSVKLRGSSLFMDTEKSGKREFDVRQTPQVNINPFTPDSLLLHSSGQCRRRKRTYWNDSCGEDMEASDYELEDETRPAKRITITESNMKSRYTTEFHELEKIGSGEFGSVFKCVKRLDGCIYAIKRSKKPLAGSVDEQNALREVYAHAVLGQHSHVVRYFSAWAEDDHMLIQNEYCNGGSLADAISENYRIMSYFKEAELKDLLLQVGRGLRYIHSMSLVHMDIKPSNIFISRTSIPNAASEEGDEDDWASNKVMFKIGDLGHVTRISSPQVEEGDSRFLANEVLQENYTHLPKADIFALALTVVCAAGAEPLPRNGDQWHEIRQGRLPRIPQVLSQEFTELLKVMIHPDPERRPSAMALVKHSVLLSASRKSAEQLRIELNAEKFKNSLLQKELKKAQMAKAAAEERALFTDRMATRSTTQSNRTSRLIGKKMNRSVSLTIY
Method: First, solutions of the compounds in different concentration gradients were prepared. The compounds were dissolved in DMSO and the compounds were diluted 4 folds with a total of 10 dose points and 2 parallel replicates for each concentration.
The IC50 for inhibition of enzyme activity by the compounds was then calculated using GraphPad Prism 6 and fitted with a log (inhibitor) vs. response-Variable slope mode. The fitting equation was: Y=Bottom+(Top−Bottom)/(1+10^((Log IC50−X)*HillSlope)), where Y represents the percentage of residual enzyme activity known and X represents the known concentration of compound after the logarithm.

[9] = molecular target: hERG potassium channel (Homo sapiens (Human), UniProt Q12809); experiment: hERG potassium channel inhibition, patch clamp in CHO hERG cells
Chain of hERG potassium channel (Q12809 whole entry): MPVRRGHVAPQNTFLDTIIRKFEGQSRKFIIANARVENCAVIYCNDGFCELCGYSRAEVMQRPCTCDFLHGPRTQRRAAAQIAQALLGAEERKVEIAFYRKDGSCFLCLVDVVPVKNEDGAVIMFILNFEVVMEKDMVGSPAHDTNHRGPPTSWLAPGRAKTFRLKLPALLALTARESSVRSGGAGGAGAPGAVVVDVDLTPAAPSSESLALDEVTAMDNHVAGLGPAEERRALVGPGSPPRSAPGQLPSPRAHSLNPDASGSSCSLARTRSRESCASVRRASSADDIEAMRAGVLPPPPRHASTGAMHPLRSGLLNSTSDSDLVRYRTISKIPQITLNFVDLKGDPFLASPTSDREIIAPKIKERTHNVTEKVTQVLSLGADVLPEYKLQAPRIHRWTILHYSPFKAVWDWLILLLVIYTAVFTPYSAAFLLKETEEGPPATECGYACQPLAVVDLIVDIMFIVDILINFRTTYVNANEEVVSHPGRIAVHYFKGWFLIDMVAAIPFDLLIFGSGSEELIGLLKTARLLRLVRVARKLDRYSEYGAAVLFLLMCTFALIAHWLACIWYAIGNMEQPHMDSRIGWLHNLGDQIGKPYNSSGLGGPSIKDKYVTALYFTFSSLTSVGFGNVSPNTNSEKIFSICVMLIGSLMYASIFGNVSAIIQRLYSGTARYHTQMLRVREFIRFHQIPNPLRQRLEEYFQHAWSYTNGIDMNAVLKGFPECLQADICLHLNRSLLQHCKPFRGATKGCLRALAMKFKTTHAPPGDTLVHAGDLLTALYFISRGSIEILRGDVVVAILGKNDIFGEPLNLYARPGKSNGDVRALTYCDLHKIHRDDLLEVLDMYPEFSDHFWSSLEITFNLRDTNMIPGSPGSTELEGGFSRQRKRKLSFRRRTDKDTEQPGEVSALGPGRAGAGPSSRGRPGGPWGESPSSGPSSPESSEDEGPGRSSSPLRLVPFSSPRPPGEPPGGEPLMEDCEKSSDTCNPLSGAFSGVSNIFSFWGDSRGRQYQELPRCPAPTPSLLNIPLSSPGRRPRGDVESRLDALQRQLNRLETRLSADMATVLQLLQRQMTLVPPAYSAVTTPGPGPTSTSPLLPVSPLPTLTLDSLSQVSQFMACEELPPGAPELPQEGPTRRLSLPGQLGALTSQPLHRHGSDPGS
Method: The cell line used for the patch clamp assay was a 10th generation CHO cell overexpressing hERG potassium channel cDNA. CHO hERG cells were cultured in Petri dishes or flasks at 37° C. in a 5% CO2 incubator. Cells were dropped onto circular slides 24-48 hours prior to electrophysiological experiments and cultured in cell culture medium and used for experiments after the cells had been adhered.
Cell culture medium (purchased from Invitrogen) Composition: • Ham's F12 medium • 10% (v/v) heat inactivated FBS • 100 μg/ml Hygromycin B (thaumatin) • 100 μg/ml Geneticin (Genomycin, G418)
Compound powders are dissolved in the extracellular solution and are subjected to a routine 5 to 10 minute sonication and shaking to ensure complete dissolution of the compound.
The final concentrations of compounds used for electrophysiological assays were 5, 20 μM and the final concentration of DMSO was 0.1%.
Cell membrane currents were recorded using a HEKA EPC-10 USB patch-clamp amplifier (HEKA Elektronik, Germany). • 1) A coverslip with a large number of uniformly growing individual CHO hERG cells on its surface was taken. Place in a continuous recording cell on an inverted microscope, perfused with extracellular fluid (approximately 1 ml per minute) and recorded continuously, waiting for the current to stabilize. • 2) Record HERG channel currents for individual cells using standard whole cell recording mode. The membrane voltage is first clamped at −80 mV and the cell is given a +20 mV stimulus for 5 s to activate the hERG potassium channel, then repolarized to −50 mV for 5 s to generate an outward tail current, which is continuously perfused until the current is stable, at which point the peak tail current is the control current value. • 3) The extracellular solution containing the drug to be tested was then perfused and recorded until the inhibitory effect of the drug on the hERG current reached a steady state, at which point the peak tail current was the post-drug current value. • 4) The cells are again perfused with the extracellular solution until the hERG current returns to or approaches the level prior to the addition of the drug, then the perfusion can be continued to test other concentrations or drugs. One or more compound or drug concentrations may be tested on each cell. • 5) Cisapride (C4740-10 mg, Sigma) is used as a positive control in the experiment to ensure that the cells used respond properly.

C=CCn1c(=O)c2cnc(Nc3ccc(N4CCN(C)CC4)cc3)nc2n1-c1ccc2c(n1)C(O)(CC)C1(CC2)CC1 (racemic) [Compound 21]
IC50 [1]: 1 to 2 µM
IC50 [2]: 0.1 to 1 µM
IC50 [3]: 0.1 to 1 µM
Plasma Protein binding (PPB) Mouse [4]: 98.86%

C=CCn1c(=O)c2cnc(Nc3ccc(N4C[C@H]5CN(C)C[C@H]5C4)cc3)nc2n1-c1ccc2c(n1)C(O)(C(F)(F)F)C1(CC1)C2 (mixture of isomers) [Compound 55]
IC50 [1]: 0.1 to 1 µM
IC50 [2]: 0.1 to 1 µM
IC50 [3]: 0.1 to 1 µM
IC50 [5]: 0.93 µM
IC50 [6]: > 10 µM

C=CCn1c(=O)c2cnc(Nc3ccc(N4CCN(C)CC4)cc3)nc2n1-c1ccc2c(n1)C(C)(O)C1(CC1)C2 (single isomer, unassigned) [Compound 3b]
IC50 [1]: 1 to 2 µM
Efflux Ration [7]: 17.90
Papp A to B [7]: 0.73 10^−6 cm/s
Papp B to A [7]: 13.07 10^−6 cm/s
IC50 [2]: 0.1 to 1 µM
IC50 [3]: 0.1 to 1 µM

C=CCn1c(=O)c2cnc(Nc3ccc(N4CCC(N(C)C)CC4)c(C)c3)nc2n1-c1ccc2c(n1)[C@@H](O)C1(CC2)CC1 (single isomer, unassigned) [Compound 41b]
IC50 [1]: 0.1 to 1 µM
IC50 [8]: ≤ 0.005 µM
IC50 [2]: 0.1 to 1 µM
IC50 [3]: 0.1 to 1 µM
IC50 [5]: 0.55 µM
IC50 [6]: > 10 µM

C=CCn1c(=O)c2cnc(Nc3ccc(N4CCC5(CCN(C)CC5)CC4)cc3)nc2n1-c1ccc2c(n1)[C@](C)(O)C1(CC2)CC1 (single isomer, unassigned) [Compound 44a]
IC50 [8]: ≤ 0.005 µM
IC50 [5]: 0.36 µM
IC50 [6]: 1.03 µM

C=CCn1c(=O)c2cnc(Nc3ccc(N4CCC(N(C)C)CC4)c(C)c3)nc2n1-c1ccc2c(n1)[C@H](O)C1(CC2)CC1 (single isomer, unassigned) [Compound 48b]
IC50 [1]: 0.1 to 1 µM
hERG Inhibition ([9]; test concentration 5 μM): 73.67 ± 0.93%
hERG Inhibition ([9]; test concentration 20 μM): 90.92 ± 0.49%
IC50 [2]: 0.1 to 1 µM
IC50 [3]: 0.1 to 1 µM

C=CCn1c(=O)c2cnc(Nc3ccc(N4CC5CC(C4)N5CC)cc3)nc2n1-c1ccc2c(n1)[C@](C)(O)C1(CC2)CC1 (single isomer, unassigned) [Compound 51a]
IC50 [1]: 0.1 to 1 µM
IC50 [8]: ≤ 0.005 µM
IC50 [2]: 0.1 to 1 µM
IC50 [3]: 0.1 to 1 µM

C=CCn1c(=O)c2cnc(Nc3ccc(N4CCN(C)[C@@H](C)C4)cc3)nc2n1-c1ccc2c(n1)[C@@H](O)C1(CC2)CC1 (single isomer, unassigned) [Compound 56b]
IC50 [1]: 0.1 to 1 µM
IC50 [2]: 0.1 to 1 µM
IC50 [3]: 0.1 to 1 µM
IC50 [5]: 0.99 µM
IC50 [6]: > 10 µM

C=CCn1c(=O)c2cnc(Nc3ccc(N4CCN(C(C)C)CC4)cc3)nc2n1-c1ccc2c(n1)[C@@H](O)C1(CC2)CC1 (single isomer, unassigned) [Compound 57b]
IC50 [1]: 0.1 to 1 µM
IC50 [2]: 0.1 to 1 µM
IC50 [3]: 0.1 to 1 µM
IC50 [5]: 0.92 µM
IC50 [6]: > 10 µM

C=CCn1c(=O)c2cnc(Nc3ccc(N4CCC5(CCN(C)CC5)CC4)c(C)c3)nc2n1-c1ccc2c(n1)[C@H](O)C1(CC2)CC1 (single isomer, unassigned) [Compound 61b]
IC50 [1]: 0.1 to 1 µM
IC50 [8]: 0.005 to 0.01 µM
IC50 [2]: 0.1 to 1 µM
IC50 [3]: 0.1 to 1 µM
IC50 [5]: 0.49 µM
IC50 [6]: 4.46 µM

C=CCn1c(=O)c2cnc(Nc3ccc(N4CCN(C)CC4)cc3)nc2n1-c1ccc2c(n1)C(O)C1(CC2)CC1 (stereo not shown) [Compound 4]
IC50 [1]: 1 to 2 µM
IC50 [8]: ≤ 0.005 µM
IC50 [2]: 0.1 to 1 µM
IC50 [3]: 1 to 2 µM

C=CCn1c(=O)c2cnc(Nc3ccc(N4CCN(C)CC4)cc3)nc2n1-c1ccc2c(n1)[C@@](C)(O)C1(CC2)CC1 [Compound 6a]
IC50 [1]: 1 to 2 µM
IC50 [8]: ≤ 0.005 µM
IC50 [2]: 0.1 to 1 µM
IC50 [3]: 0.1 to 1 µM

C=CCn1c(=O)c2cnc(Nc3ccc(N4CC5CC(C4)N5C)cc3)nc2n1-c1ccc2c(n1)C(C)(O)C1(CC2)CC1 (stereo not shown) [Compound 7]
IC50 [1]: 0.1 to 1 µM
IC50 [8]: ≤ 0.005 µM
hERG Inhibition ([9]; test concentration 5 μM): 88.02 ± 3.87%
hERG Inhibition ([9]; test concentration 20 μM): 95.13 ± 1.06%
IC50 [2]: 0.1 to 1 µM
IC50 [3]: 0.1 to 1 µM

C=CCn1c(=O)c2cnc(Nc3ccc(N4CCN(C)CC4)cc3)nc2n1-c1ccc2c3c(n(CC)c2n1)OCCC3 [Compound 17]
IC50 [1]: 1 to 2 µM
IC50 [8]: ≤ 0.005 µM
IC50 [2]: 0.1 to 1 µM
IC50 [3]: 0.1 to 1 µM

C=CCn1c(=O)c2cnc(Nc3ccc(N4CCN(C)[C@@H](C)C4)cc3)nc2n1-c1ccc2c(n1)C(O)(CC)C1(CC1)C2 (stereo partly shown) [Compound 30]
IC50 [1]: 1 to 2 µM
IC50 [8]: ≤ 0.005 µM
IC50 [2]: 0.1 to 1 µM
IC50 [3]: 1 to 2 µM

C=CCn1c(=O)c2cnc(Nc3ccc(N4CCC5(CCN(C)CC5)CC4)cc3)nc2n1-c1ccc2c(n1)[C@@H](O)C1(CC2)CC1 [Compound 37a]
IC50 [1]: 0.1 to 1 µM
IC50 [8]: 0.005 to 0.01 µM
IC50 [2]: 0.1 to 1 µM
IC50 [3]: 0.1 to 1 µM

C=CCn1c(=O)c2cnc(Nc3ccc(N4CCC5(CCN(C)CC5)CC4)cc3)nc2n1-c1ccc2c(n1)[C@H](O)C1(CC2)CC1 [Compound 38b]
IC50 [1]: 0.1 to 1 µM
IC50 [8]: 0.005 to 0.01 µM
IC50 [2]: 0.1 to 1 µM
IC50 [3]: 0.1 to 1 µM

[2H][C@]1(O)c2nc(-n3c4nc(Nc5ccc(N6CC7CC(C6)N7C(C)C)cc5)ncc4c(=O)n3CC=C)ccc2CCC12CC2 [Compound 39b]
Efflux Ration [7]: 35.84
Papp A to B [7]: 0.38 10^−6 cm/s
Papp B to A [7]: 13.62 10^−6 cm/s
hERG Inhibition ([9]; test concentration 5 μM): 47.26 ± 2.27%
hERG Inhibition ([9]; test concentration 20 μM): 67.24 ± 1.32%

C=CCn1c(=O)c2cnc(Nc3ccc(N4CC5CC(C4)N5C(C)C)cc3)nc2n1-c1ccc2c(n1)[C@H](O)C1(CC2)CC1 [Compound 39b]
IC50 [1]: 0.1 to 1 µM
IC50 [8]: 0.005 to 0.01 µM
IC50 [2]: 0.1 to 1 µM
IC50 [3]: 0.1 to 1 µM
IC50 [5]: 0.73 µM
IC50 [6]: > 10 µM

[2H][C@@]1(O)c2nc(-n3c4nc(Nc5ccc(N6CCC(N(C)C)CC6)c(C)c5)ncc4c(=O)n3CC=C)ccc2CCC12CC2 [Compound 41b]
Plasma Protein binding (PPB) Mouse [4]: 96.26%

C=CCn1c(=O)c2cnc(Nc3ccc(N4CCC(N(C)C)CC4)cc3)nc2n1-c1ccc2c(n1)[C@@](C)(O)C1(CC2)CC1 [Compound 65a]
IC50 [1]: 0.1 to 1 µM
Efflux Ration [7]: 9.55
Papp A to B [7]: 0.96 10^−6 cm/s
Papp B to A [7]: 9.17 10^−6 cm/s
IC50 [8]: 0.005 to 0.01 µM
IC50 [2]: 0.1 to 1 µM
IC50 [3]: 0.1 to 1 µM
IC50 [5]: 0.7 µM
IC50 [6]: > 10 µM
